From US20210261528A1, “SALTS OF (S)-(5-CYCLOBUTOXY-2-METHYL-6-(1-(PIPERIDIN-4-YL)-1H-PYRAZOL-4-YL)-3,4-DIHYDROQUINOLIN-1(2H)-YL)(CYCLOPROPYL)METHANONE AND SOLID FORMS THEREOF” (FORMA Therapeutics, Inc., priority 2018, published 2021)

Columns and labels:
Type in all cases: physicochemical
[1] = Hygroscopicity evaluation by Dynamic Vapor Sorption (DVS) with XRPD of the solids after DVS; details: for solid form after the DVS test: XRPD of solids after DVS
Experimental: Dynamic Vapor Sorption (DVS) was obtained using a Surface Measurement Systems (SMS) DVS Intrinsic. The relative humidity at 25° C. were calibrated against deliquescence point of LiCl, Mg (NO3)2 and KCl.

[2] = Slurry competition between Compound 2 Form G and Form O for stability evaluation (Example 10, Table 24); details: IPAc and MTBE, RT and 50° C., 24 hours
Experimental: The slurry competition experiments between the two anhydrates, Form G and Form O, were performed in two solvents, IPAc and MTBE, at RT and 50° C. for stability evaluation. Form O was dissolved in IPAc and MTBE respectively to get saturated solutions. Then, similar masses of Form G and Form O were added into a 2-mL vial, upon which the corresponding saturated solution was added to give the slurry, which was stirred at RT or 50° C. for 24 hours. The solids collected were analyzed by XRPD to confirm the form change.

[3] = Critical aw between Compound 2 Form G and Form I, slurry turnover in H2O/IPAc (Example 12, Table 26); details: H2O/IPAc, RT and 50° C., 24 hrs; except aw of 0.8 at RT (close to amorphous)
Experimental: To investigate the critical aw between hydrated Form I and the stable anhydrate, Form G, slurry turnover of Form I and Form G was conducted in a co-solvent system (H2O/IPAc) with different aw at RT and 50° C. Similar mass of Form G and Form I were added into a 2-mL vial, followed by adding solvent and stirring at RT or 50° C. for 24 hrs. The solids obtained were analyzed by XRPD to confirm the form change.

[4] = Slurry turnover of Compound 2 Form B, Form I and Form G (Example 11, Table 25); details: IPAc and MTBE, RT or 50° C., 24 hours
Experimental: To further study the form identity of Form B and Form I, slurry turnover experiments were performed in two solvents with the addition of Form G. Form B was dissolved in IPAc and MTBE respectively to get saturated solutions. Similar mass of Form B, G and I were weighed into a 2-mL vial, upon which the corresponding saturated solution was added to give the slurry, which was stirred at RT or 50° C. After slurry for 24 hours, the solids obtained were analyzed by XRPD.

[5] = Aqueous solubility estimation of Compound 2 Form G, Form O and Form I at RT (Example 13, Table 27)
Experimental: Aqueous solubility tests at RT were conducted on the two potential anhydrates, Form G and O, and the hydrated Form I. About 3 mg of each form was weighed into a 2-mL vial. […] of water was added and stirred thoroughly at RT with the speed of 800 RPM.

[6] = Chemical stability by HPLC-UV at 275 nm and 254 nm (Table 9)
Experimental: High Pressure Liquid Chromatography (HPLC) data were obtained according to Tables 6 or 7, below:
A standard stock was dissolved with diluent in a volumetric flask (e.g., 25 mg in 25 mL). This stock was vortexed and sonicated 10 sec to dissolve, and then diluted 1:10, 1:4, and 1:2 either in volumetric flasks or in HPLC vials to generate a standard curve. […] Where appropriate, a blank was created to accurately replicate the matrix of the analytical sample, and peaks appearing in the blank were identified before integration and quantification using Chemstation software.
The chemical stability of Succinate Form A was determined using HPLC-UV at 275 nm and 254 nm.
The chemical stability of Form G was determined using HPLC-UV at 275 nm and 254 nm.

[7] = Physical stability of Compound 2 Form G over 42 days at varying conditions by XRPD, PLM, DSC/TGA (Table 23)
Experimental: The stability of Compound 2 Form G was tested over 42 days at varying conditions and is reported below in Table 23 and in FIG. 61:
On Day 38, stability samples at 50° C. were exposed to temperatures of approximately 85° C. for 24 hours.

[8] = Slurry conversion of Fumarate Forms A, B and C (Example 6, Table 11); details: RT, about 4 days
Experimental: Slurry conversion of Fumarate Forms A, B, and C was conducted in three different solvents.

[9] = Aqueous solubility evaluation of Compound 1 salt forms (Example 5, Table 10)
Experimental: For each of the experiments 1 through 5 in Table 10, about 100 mg of solid form was suspended in 1.5 mL of water, and the vial was rolled at RT for about 24 hours (25 r/min). […] Supernatant of experiment 3 was collected by filtration through a 0.45 μm membrane for HPLC analysis. For each of the experiments 6 through 10 in Table 10, about 40 mg of solid form was dissolved in 0.2 mL (0.9 mL for experiment 7) water and then analyzed by HPLC after 24-hour storage at RT.

[10] = ambient conditions and 25° C./60% RH open, 42 days, 254 nm
[11] = 50° C., closed, 42* days (Day 38 excursion to approximately 85° C. for 24 hours)

For `C[C@H]1CCc2c(ccc(-c3cnn(C4CCNCC4)c3)c2OC2CCC2)N1C(=O)C1CC1.O=C(O)CCC(=O)O` [Form G, (S)-(5-cyclobutoxy-2-methyl-6-(1-(piperidin-4-yl)-1H-pyrazol-4-yl)-3,4-dihydroquinolin-1(2H)-yl)(cyclopropyl)methanone succinate], the “solid form after the DVS test” value ([1]; succinate) was “amorphous”, the “water absorbed above 70% RH (DVS)” value ([1]; above 70% RH) was “about 25.19 % (wt/wt)” and the “hygroscopicity (DVS)” value ([1]; absorption up to 80% RH, 25° C., succinate) was “high hygroscopicity”. For the same molecule, the “form obtained from slurry competition of Form G and Form O (XRPD)” value [2] was “converted to Form G completely”, the “form obtained from slurry of Form G and Form I at different aw (XRPD)” value [3] was “completely converted to Form G” and the “form obtained from slurry of a mixture of Form B, G and I (XRPD)” value [4] was “converted to Form G completely”. The “Observation Initial” value ([5]; about 3 mg in 50 μL water, initial, succinate) was “Clear”, the solubility at 2 h ([5]; thermodynamic from solid, water, stirring 2 hrs at 800 RPM) was > 60 mg/mL and the “claim of the expected Compound 2 content by HPLC-UV” value ([6]; all stability samples, 275 nm) was 95-107 % claim. For the same molecule, the “impurity increase by HPLC-UV” value [6, 10] was “no significant impurity increase”, the “reduction in purity by HPLC-UV” value [6, 10] was “no reduction in purity” and the “DSC endotherm Temp” value ([7]; 25° C./60% RH open, 1 days) was 125.46 °C. For the same molecule, the “DSC endotherm ΔH” value ([7]; 25° C./60% RH open, 1 days) was 66.76 J/g, the “TGA % weight loss before 150° C.” value ([7]; 25° C./60% RH open, 1 days) was 0.4580% and the “DSC endotherm Temp” value ([7]; 25° C./60% RH open, 3 days) was 125.61 °C. For the same molecule, the “DSC endotherm ΔH” value ([7]; 25° C./60% RH open, 3 days) was 63.86 J/g, the “TGA % weight loss before 150° C.” value ([7]; 25° C./60% RH open, 3 days) was 0.5433% and the “DSC endotherm Temp” value ([7]; 25° C./60% RH open, 7 days) was 125.68 °C. The “DSC endotherm ΔH” value ([7]; 25° C./60% RH open, 7 days) was 64.19 J/g, the “TGA % weight loss before 150° C.” value ([7]; 25° C./60% RH open, 7 days) was 0.5129% and the “DSC endotherm Temp” value ([7]; 25° C./60% RH open, 14 days) was 125.64 °C. For the same molecule, the “DSC endotherm ΔH” value ([7]; 25° C./60% RH open, 14 days) was 65.95 J/g, the “TGA % weight loss before 150° C.” value ([7]; 25° C./60% RH open, 14 days) was 0.5232% and the “DSC endotherm Temp” value ([7]; 25° C./60% RH open, 21 days) was 125.94 °C. The “DSC endotherm ΔH” value ([7]; 25° C./60% RH open, 21 days) was 64.03 J/g, the “TGA % weight loss before 150° C.” value ([7]; 25° C./60% RH open, 21 days) was 0.6097% and the “DSC endotherm Temp” value ([7]; 25° C./60% RH open, 42 days) was 126.50 °C. The “DSC endotherm ΔH” value ([7]; 25° C./60% RH open, 42 days) was 57.76 J/g, the “TGA % weight loss before 150° C.” value ([7]; 25° C./60% RH open, 42 days) was 0.6016% and the “flowability by visual assessment” value ([7]; 50° C. sample after being exposed to higher temperatures) was “slight reduction in flowability”. For the same molecule, the “physical stability (XRPD, DSC/TGA, PLM)” value ([7]; 50° C. samples, exposed on Day 38 to approximately 85° C. for 24 hours) was “physically stable”, the “DSC endotherm Temp” value [7, 11] was 121.80 °C and the “DSC endotherm ΔH” value [7, 11] was 51.32 J/g. For the same molecule, the “TGA % weight loss before 150° C.” value [7, 11] was 0.7707%, the “DSC endotherm Temp” value ([7]; 50° C., closed, 1 days) was 125.53 °C and the “DSC endotherm ΔH” value ([7]; 50° C., closed, 1 days) was 67.41 J/g. For the same molecule, the “TGA % weight loss before 150° C.” value ([7]; 50° C., closed, 1 days) was 0.4716%, the “DSC endotherm Temp” value ([7]; 50° C., closed, 3 days) was 125.97 °C and the “DSC endotherm ΔH” value ([7]; 50° C., closed, 3 days) was 59.90 J/g. For the same molecule, the “TGA % weight loss before 150° C.” value ([7]; 50° C., closed, 3 days) was 0.4670%, the “DSC endotherm Temp” value ([7]; 50° C., closed, 7 days) was 125.97 °C and the “DSC endotherm ΔH” value ([7]; 50° C., closed, 7 days) was 65.47 J/g. For the same molecule, the “TGA % weight loss before 150° C.” value ([7]; 50° C., closed, 7 days) was 0.5022%, the “DSC endotherm Temp” value ([7]; 50° C., closed, 14 days) was 125.16 °C and the “DSC endotherm ΔH” value ([7]; 50° C., closed, 14 days) was 64.27 J/g. The “TGA % weight loss before 150° C.” value ([7]; 50° C., closed, 14 days) was 0.5893%, the “DSC endotherm Temp” value ([7]; 50° C., closed, 21 days) was 125.21 °C and the “DSC endotherm ΔH” value ([7]; 50° C., closed, 21 days) was 64.69 J/g. For the same molecule, the “TGA % weight loss before 150° C.” value ([7]; 50° C., closed, 21 days) was 0.5702%, the “DSC endotherm Temp” value ([7]; Initial, 0 days) was 125.51 °C and the “DSC endotherm ΔH” value ([7]; Initial, 0 days) was 63.56 J/g. For the same molecule, the “TGA % weight loss before 150° C.” value ([7]; Initial, 0 days) was 0.5459%, the “flow properties by visual assessment” value ([7]; ambient 42 days, 25° C./75% RH 42 days, 50° C. 21 days) was “good flow properties” and the “DSC endotherm Temp” value ([7]; ambient, closed, 1 days) was 125.59 °C. The “DSC endotherm ΔH” value ([7]; ambient, closed, 1 days) was 62.59 J/g, the “TGA % weight loss before 150° C.” value ([7]; ambient, closed, 1 days) was 0.5454% and the “DSC endotherm Temp” value ([7]; ambient, closed, 3 days) was 125.61 °C. For the same molecule, the “DSC endotherm ΔH” value ([7]; ambient, closed, 3 days) was 63.01 J/g, the “TGA % weight loss before 150° C.” value ([7]; ambient, closed, 3 days) was 0.5338% and the “DSC endotherm Temp” value ([7]; ambient, closed, 7 days) was 125.41 °C. For the same molecule, the “DSC endotherm ΔH” value ([7]; ambient, closed, 7 days) was 63.00 J/g, the “TGA % weight loss before 150° C.” value ([7]; ambient, closed, 7 days) was 0.5540% and the “DSC endotherm Temp” value ([7]; ambient, closed, 14 days) was 125.52 °C. For the same molecule, the “DSC endotherm ΔH” value ([7]; ambient, closed, 14 days) was 63.86 J/g, the “TGA % weight loss before 150° C.” value ([7]; ambient, closed, 14 days) was 0.4133% and the “DSC endotherm Temp” value ([7]; ambient, closed, 21 days) was 125.38 °C. The “DSC endotherm ΔH” value ([7]; ambient, closed, 21 days) was 67.51 J/g, the “TGA % weight loss before 150° C.” value ([7]; ambient, closed, 21 days) was 0.8085% and the “DSC endotherm Temp” value ([7]; ambient, closed, 42 days) was 125.35 °C. For the same molecule, the “DSC endotherm ΔH” value ([7]; ambient, closed, 42 days) was 66.56 J/g, the “TGA % weight loss before 150° C.” value ([7]; ambient, closed, 42 days) was 0.4578% and the “change in physical form by XRPD, PLM or DSC/TGA” value ([7]; storage conditions below 75% RH, after 42 days) was “no significant change in physical form”.
For `C[C@H]1CCc2c(ccc(-c3cnn(C4CCNCC4)c3)c2OC2CCC2)N1C(=O)C1CC1.O=C(O)/C=C/C(=O)O` [Fumarate Type A, B and C], the “Solid form after slurry conversion” value ([8]; ACN) was “Fumarate Form A”, the “Solid form after slurry conversion” value ([8]; Acetone) was “Fumarate Form B” and the “Solid form after slurry conversion” value ([8]; EtOAc) was “Fumarate Form C”.
In the case of `C[C@H]1CCc2c(ccc(-c3cnn(C4CCNCC4)c3)c2OC2CCC2)N1C(=O)C1CC1.O=C(O)CCC(=O)O` [Succinate Form A, (S)-(5-cyclobutoxy-2-methyl-6-(1-(piperidin-4-yl)-1H-pyrazol-4-yl)-3,4-dihydroquinolin-1(2H)-yl)(cyclopropyl)methanone succinate], the “behaviour at high humidity (DVS)” value ([1]; >60% RH, 25° C.) is reported as “deliquescent”, the “solid form after the DVS test” value ([1]; succinate) is reported as “amorphous or jelly solids” and the solubility in water [9] is reported as > 100 mg FB/mL. For the same molecule, the “chemical degradation by HPLC-UV” value ([6]; after 42 days at 25° C./60% RH) was “did not show significant chemical degradation” and the “chemical degradation by HPLC-UV” value ([6]; after 42 days at temperatures below 40° C.) was “no significant chemical degradation”.
